# Publication PMC6199309, “A therapeutic approach to pantothenate kinase associated neurodegeneration” (Nature Communications, 2018)
# Entries after “also recorded” stand apart in the source; their conditions may differ.
# Tests used:
# [1] = biological target: T1, RSK2(Kin.Dom.1-N-terminal) (Homo sapiens, UniProt P51812); assay: KINOMEscan; type: binding; conditions: read-out: %Ctrl @ 10000nM
# T1 construct: RSK2(Kin.Dom.1-N-terminal); purchased DiscoverX KINOMEscan
# [2] = biological target: T2, TAOK3 (Homo sapiens, UniProt Q9H2K8); assay: KINOMEscan; type: binding; conditions: read-out: %Ctrl @ 10000nM
# T2 construct: purchased DiscoverX KINOMEscan
# [3] = biological target: T3, ABL1(Y253F)-phosphorylated (Homo sapiens, UniProt P00519, Y253F); assay: KINOMEscan; type: binding; conditions: read-out: %Ctrl @ 10000nM
# T3 construct: purchased DiscoverX KINOMEscan
# [4] = biological target: T4, FGFR2 (Homo sapiens, UniProt P21802); assay: KINOMEscan; type: binding; conditions: read-out: %Ctrl @ 10000nM
# T4 construct: purchased DiscoverX KINOMEscan
# [5] = biological target: T5, MYLK (Homo sapiens, UniProt Q15746); assay: KINOMEscan; type: binding; conditions: read-out: %Ctrl @ 10000nM
# T5 construct: purchased DiscoverX KINOMEscan
# [6] = biological target: T6, CDC2L2 (Homo sapiens, UniProt Q9UQ88); assay: KINOMEscan; type: binding; conditions: read-out: %Ctrl @ 10000nM
# T6 construct: purchased DiscoverX KINOMEscan
# T6 sequence (Q9UQ88 whole entry): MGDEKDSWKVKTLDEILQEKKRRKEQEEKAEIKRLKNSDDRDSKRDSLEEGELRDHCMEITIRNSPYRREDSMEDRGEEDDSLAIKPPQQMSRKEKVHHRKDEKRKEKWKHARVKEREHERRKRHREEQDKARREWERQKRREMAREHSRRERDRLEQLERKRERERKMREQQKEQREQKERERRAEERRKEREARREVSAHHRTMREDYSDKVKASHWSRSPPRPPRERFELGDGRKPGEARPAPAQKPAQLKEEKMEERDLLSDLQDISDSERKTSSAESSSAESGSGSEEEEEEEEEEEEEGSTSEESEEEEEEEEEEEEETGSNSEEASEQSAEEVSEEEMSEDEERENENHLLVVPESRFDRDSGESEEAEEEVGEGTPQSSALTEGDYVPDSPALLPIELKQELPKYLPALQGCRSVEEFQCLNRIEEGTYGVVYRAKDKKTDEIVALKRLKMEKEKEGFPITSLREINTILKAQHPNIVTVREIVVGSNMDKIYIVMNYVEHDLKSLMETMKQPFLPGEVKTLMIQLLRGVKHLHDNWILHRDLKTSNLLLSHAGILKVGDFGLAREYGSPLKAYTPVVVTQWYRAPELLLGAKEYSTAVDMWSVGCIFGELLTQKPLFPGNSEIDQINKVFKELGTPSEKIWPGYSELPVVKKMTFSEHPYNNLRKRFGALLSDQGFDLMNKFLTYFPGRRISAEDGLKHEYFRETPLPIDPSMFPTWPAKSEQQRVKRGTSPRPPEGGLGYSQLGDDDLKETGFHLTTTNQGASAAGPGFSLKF
# [7] = biological target: T7, NLK (Homo sapiens, UniProt Q9UBE8); assay: KINOMEscan; type: binding; conditions: read-out: %Ctrl @ 10000nM
# T7 construct: purchased DiscoverX KINOMEscan
# [8] = biological target: T8, NIM1 (Homo sapiens, UniProt Q8IY84); assay: KINOMEscan; type: binding; conditions: read-out: %Ctrl @ 10000nM
# T8 construct: purchased DiscoverX KINOMEscan
# [9] = biological target: T9, MAP4K2 (Homo sapiens, UniProt Q12851); assay: KINOMEscan; type: binding; conditions: read-out: %Ctrl @ 10000nM
# T9 construct: purchased DiscoverX KINOMEscan
# [10] = biological target: T10, DYRK1A (Homo sapiens, UniProt Q13627); assay: KINOMEscan; type: binding; conditions: read-out: %Ctrl @ 10000nM
# T10 construct: purchased DiscoverX KINOMEscan
# [11] = biological target: T11, ABL1(H396P)-phosphorylated (Homo sapiens, UniProt P00519, H396P); assay: KINOMEscan; type: binding; conditions: read-out: %Ctrl @ 10000nM
# T11 construct: purchased DiscoverX KINOMEscan
# [12] = biological target: T12, CSNK2A2 (Homo sapiens, UniProt P19784); assay: KINOMEscan; type: binding; conditions: read-out: %Ctrl @ 10000nM
# T12 construct: purchased DiscoverX KINOMEscan
# T12 sequence (P19784 whole entry): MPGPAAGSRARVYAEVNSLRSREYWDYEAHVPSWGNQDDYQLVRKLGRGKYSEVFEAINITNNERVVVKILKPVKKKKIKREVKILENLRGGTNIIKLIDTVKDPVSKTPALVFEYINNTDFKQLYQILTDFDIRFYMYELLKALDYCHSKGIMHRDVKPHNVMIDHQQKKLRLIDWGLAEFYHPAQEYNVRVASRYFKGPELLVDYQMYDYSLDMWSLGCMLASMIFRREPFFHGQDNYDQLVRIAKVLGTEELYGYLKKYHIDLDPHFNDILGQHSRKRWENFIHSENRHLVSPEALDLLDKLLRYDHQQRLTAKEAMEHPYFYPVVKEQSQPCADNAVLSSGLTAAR
# [13] = biological target: T13, CAMK2B (Homo sapiens, UniProt Q13554); assay: KINOMEscan; type: binding; conditions: read-out: %Ctrl @ 10000nM
# T13 construct: purchased DiscoverX KINOMEscan
# [14] = biological target: T14, STK16 (Homo sapiens, UniProt O75716); assay: KINOMEscan; type: binding; conditions: read-out: %Ctrl @ 10000nM
# T14 construct: purchased DiscoverX KINOMEscan
# [15] = biological target: T15, IKK-alpha (Homo sapiens, UniProt O15111); assay: KINOMEscan; type: binding; conditions: read-out: %Ctrl @ 10000nM
# T15 construct: purchased DiscoverX KINOMEscan
# [16] = Solubility at pH 7.4
# [17] = biological target: T16, RAF1 (Homo sapiens, UniProt P04049); assay: KINOMEscan; type: binding; conditions: read-out: %Ctrl @ 10000nM
# T16 construct: purchased DiscoverX KINOMEscan
# [18] = biological target: T17, PRKD1 (Homo sapiens, UniProt Q15139); assay: KINOMEscan; type: binding; conditions: read-out: %Ctrl @ 10000nM
# T17 construct: purchased DiscoverX KINOMEscan
# [19] = biological target: T18, FLT3(D835H) (Homo sapiens, UniProt P36888, D835H); assay: KINOMEscan; type: binding; conditions: read-out: %Ctrl @ 10000nM
# T18 construct: purchased DiscoverX KINOMEscan
# [20] = biological target: T19, RIPK5 (Homo sapiens, UniProt Q6XUX3); assay: KINOMEscan; type: binding; conditions: read-out: %Ctrl @ 10000nM
# T19 construct: purchased DiscoverX KINOMEscan
# [21] = biological target: T20, INSRR (Homo sapiens, UniProt P14616); assay: KINOMEscan; type: binding; conditions: read-out: %Ctrl @ 10000nM
# T20 construct: purchased DiscoverX KINOMEscan
# [22] = biological target: T21, PIM1 (Homo sapiens, UniProt P11309); assay: KINOMEscan; type: binding; conditions: read-out: %Ctrl @ 10000nM
# T21 construct: purchased DiscoverX KINOMEscan
# T21 sequence (P11309 whole entry): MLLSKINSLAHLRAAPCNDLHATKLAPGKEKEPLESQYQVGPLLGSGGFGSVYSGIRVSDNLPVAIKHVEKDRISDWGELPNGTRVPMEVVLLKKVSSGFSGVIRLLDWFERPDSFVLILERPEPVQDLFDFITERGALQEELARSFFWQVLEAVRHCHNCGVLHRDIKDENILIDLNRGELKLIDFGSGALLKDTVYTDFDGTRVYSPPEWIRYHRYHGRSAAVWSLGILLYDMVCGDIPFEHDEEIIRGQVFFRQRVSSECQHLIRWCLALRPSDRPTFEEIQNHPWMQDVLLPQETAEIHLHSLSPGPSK
# [23] = biological target: T22, CAMK2G (Homo sapiens, UniProt Q13555); assay: KINOMEscan; type: binding; conditions: read-out: %Ctrl @ 10000nM
# T22 construct: purchased DiscoverX KINOMEscan
# [24] = biological target: T23, BRAF(V600E) (Homo sapiens, UniProt P15056, V600E); assay: KINOMEscan; type: binding; conditions: read-out: %Ctrl @ 10000nM
# T23 construct: purchased DiscoverX KINOMEscan
# [25] = biological target: T24, RSK1(Kin.Dom.2-C-terminal) (Homo sapiens, UniProt Q15418); assay: KINOMEscan; type: binding; conditions: read-out: %Ctrl @ 10000nM
# T24 construct: RSK1(Kin.Dom.2-C-terminal); purchased DiscoverX KINOMEscan
# T24 sequence (Q15418 392-735 limits assumed): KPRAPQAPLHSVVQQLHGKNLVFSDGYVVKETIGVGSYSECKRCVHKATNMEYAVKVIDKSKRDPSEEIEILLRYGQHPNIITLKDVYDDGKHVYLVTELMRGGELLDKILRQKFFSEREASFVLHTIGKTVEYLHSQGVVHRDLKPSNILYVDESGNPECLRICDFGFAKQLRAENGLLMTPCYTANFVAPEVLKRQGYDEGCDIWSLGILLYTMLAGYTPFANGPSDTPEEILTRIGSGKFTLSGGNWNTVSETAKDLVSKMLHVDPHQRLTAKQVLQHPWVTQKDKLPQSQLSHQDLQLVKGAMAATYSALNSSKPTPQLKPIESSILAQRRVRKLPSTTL
# [26] = biological target: T25, SIK2 (Homo sapiens, UniProt Q9H0K1); assay: KINOMEscan; type: binding; conditions: read-out: %Ctrl @ 10000nM
# T25 construct: DNA tag for qPCR (T7 phage fusion or DNA label); purchased DiscoverX KdELECT; host or cells: E. coli BL21-derived (T7 phage) or HEK-293
# T25 sequence (Q9H0K1 whole entry, the tested form may be a part): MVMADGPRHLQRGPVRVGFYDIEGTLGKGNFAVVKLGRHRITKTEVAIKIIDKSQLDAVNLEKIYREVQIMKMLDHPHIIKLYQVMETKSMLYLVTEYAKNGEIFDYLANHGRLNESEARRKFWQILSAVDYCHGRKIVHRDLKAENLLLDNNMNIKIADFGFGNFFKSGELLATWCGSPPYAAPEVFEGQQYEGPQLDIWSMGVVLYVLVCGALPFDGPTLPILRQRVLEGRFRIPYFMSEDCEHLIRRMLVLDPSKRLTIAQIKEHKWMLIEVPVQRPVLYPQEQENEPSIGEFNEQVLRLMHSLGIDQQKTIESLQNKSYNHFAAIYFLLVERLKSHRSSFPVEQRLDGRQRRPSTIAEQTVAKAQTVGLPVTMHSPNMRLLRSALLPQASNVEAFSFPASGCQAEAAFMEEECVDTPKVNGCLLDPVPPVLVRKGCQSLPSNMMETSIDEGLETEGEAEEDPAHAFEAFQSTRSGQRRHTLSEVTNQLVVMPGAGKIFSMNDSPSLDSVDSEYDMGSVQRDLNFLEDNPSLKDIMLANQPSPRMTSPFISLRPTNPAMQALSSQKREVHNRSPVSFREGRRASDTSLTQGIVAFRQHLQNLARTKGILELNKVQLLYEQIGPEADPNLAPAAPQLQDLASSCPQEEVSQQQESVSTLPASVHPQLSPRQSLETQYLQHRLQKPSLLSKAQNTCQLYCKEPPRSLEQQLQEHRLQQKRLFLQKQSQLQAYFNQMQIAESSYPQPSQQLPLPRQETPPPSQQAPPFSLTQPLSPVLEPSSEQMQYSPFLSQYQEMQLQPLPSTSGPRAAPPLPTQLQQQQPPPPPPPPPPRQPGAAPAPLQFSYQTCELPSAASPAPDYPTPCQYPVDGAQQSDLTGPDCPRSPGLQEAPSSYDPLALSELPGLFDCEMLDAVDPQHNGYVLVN
# [27] = biological target: T26, BMX (Homo sapiens, UniProt P51813); assay: KINOMEscan; type: binding; conditions: read-out: %Ctrl @ 10000nM
# T26 construct: purchased DiscoverX KINOMEscan
# [28] = biological target: T27, S6K1 (Homo sapiens, UniProt P23443); assay: KINOMEscan; type: binding; conditions: read-out: %Ctrl @ 10000nM
# T27 construct: purchased DiscoverX KINOMEscan
# [29] = biological target: T28, EGFR(L747-E749del, A750P) (Homo sapiens, UniProt P00533, A750P/DEL747-749); assay: KINOMEscan; type: binding; conditions: read-out: %Ctrl @ 10000nM
# T28 construct: purchased DiscoverX KINOMEscan
# [30] = biological target: T29, QSK (Homo sapiens, UniProt Q9Y2K2); assay: KINOMEscan; type: binding; conditions: read-out: %Ctrl @ 10000nM
# T29 construct: purchased DiscoverX KINOMEscan
# [31] = biological target: T30, PIK3CD (Homo sapiens, UniProt O00329); assay: KINOMEscan; type: binding; conditions: read-out: %Ctrl @ 10000nM
# T30 construct: purchased DiscoverX KINOMEscan
# [32] = biological target: T31, PAK6 (Homo sapiens, UniProt Q9NQU5); assay: KINOMEscan; type: binding; conditions: read-out: %Ctrl @ 10000nM
# T31 construct: purchased DiscoverX KINOMEscan
# [33] = biological target: T32, CDC2L1 (Homo sapiens, UniProt P21127); assay: KINOMEscan; type: binding; conditions: read-out: %Ctrl @ 10000nM
# T32 construct: purchased DiscoverX KINOMEscan
# [34] = biological target: T33, LZK (Homo sapiens, UniProt O43283); assay: KINOMEscan; type: binding; conditions: read-out: %Ctrl @ 10000nM
# T33 construct: purchased DiscoverX KINOMEscan
# [35] = biological target: T34, EPHB1 (Homo sapiens, UniProt P54762); assay: KINOMEscan; type: binding; conditions: read-out: %Ctrl @ 10000nM
# T34 construct: purchased DiscoverX KINOMEscan
# T34 sequence (P54762 18-984): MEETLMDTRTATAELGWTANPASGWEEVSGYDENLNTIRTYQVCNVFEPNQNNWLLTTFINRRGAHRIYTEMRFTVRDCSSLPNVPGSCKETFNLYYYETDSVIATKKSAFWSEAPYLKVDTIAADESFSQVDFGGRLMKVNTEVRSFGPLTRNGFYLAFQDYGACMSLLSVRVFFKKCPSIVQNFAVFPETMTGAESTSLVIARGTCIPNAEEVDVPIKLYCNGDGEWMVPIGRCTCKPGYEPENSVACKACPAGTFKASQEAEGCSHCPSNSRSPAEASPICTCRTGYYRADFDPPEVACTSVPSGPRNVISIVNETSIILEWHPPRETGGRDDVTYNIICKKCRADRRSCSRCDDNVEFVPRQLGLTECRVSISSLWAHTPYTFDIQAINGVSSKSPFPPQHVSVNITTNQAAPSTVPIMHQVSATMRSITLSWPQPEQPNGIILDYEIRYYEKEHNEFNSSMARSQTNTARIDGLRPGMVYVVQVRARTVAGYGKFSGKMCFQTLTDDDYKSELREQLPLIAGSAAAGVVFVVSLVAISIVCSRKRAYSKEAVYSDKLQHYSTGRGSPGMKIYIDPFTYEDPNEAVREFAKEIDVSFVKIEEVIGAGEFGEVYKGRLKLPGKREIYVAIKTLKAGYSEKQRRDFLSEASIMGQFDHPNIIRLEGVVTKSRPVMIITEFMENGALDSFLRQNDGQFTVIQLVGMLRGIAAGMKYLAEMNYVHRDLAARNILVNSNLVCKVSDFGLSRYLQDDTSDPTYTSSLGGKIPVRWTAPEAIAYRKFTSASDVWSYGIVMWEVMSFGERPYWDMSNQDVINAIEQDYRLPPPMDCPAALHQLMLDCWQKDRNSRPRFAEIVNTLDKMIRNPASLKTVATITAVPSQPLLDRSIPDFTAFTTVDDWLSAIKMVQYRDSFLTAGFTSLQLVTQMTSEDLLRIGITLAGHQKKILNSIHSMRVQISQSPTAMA
# [36] = tested on: 468 human kinases; assay: KINOMEscan scanMAX panel; type: binding
# [37] = biological target: T35, PDPK1 (Homo sapiens, UniProt O15530); assay: KINOMEscan; type: binding; conditions: read-out: %Ctrl @ 10000nM
# T35 construct: purchased DiscoverX KINOMEscan
# [38] = biological target: T36, MUSK (Homo sapiens, UniProt O15146); assay: KINOMEscan; type: binding; conditions: read-out: %Ctrl @ 10000nM
# T36 construct: purchased DiscoverX KINOMEscan
# [39] = biological target: T37, TLK1 (Homo sapiens, UniProt Q9UKI8); assay: KINOMEscan; type: binding; conditions: read-out: %Ctrl @ 10000nM
# T37 construct: purchased DiscoverX KINOMEscan
# [40] = biological target: T38, DYRK1B (Homo sapiens, UniProt Q9Y463); assay: KINOMEscan; type: binding; conditions: read-out: %Ctrl @ 10000nM
# T38 construct: purchased DiscoverX KINOMEscan
# [41] = biological target: T39, PIK3CA(E542K) (Homo sapiens, UniProt P42336, E542K); assay: KINOMEscan; type: binding; conditions: read-out: %Ctrl @ 10000nM
# T39 construct: purchased DiscoverX KINOMEscan
# T39 sequence (P42336 whole entry E542K): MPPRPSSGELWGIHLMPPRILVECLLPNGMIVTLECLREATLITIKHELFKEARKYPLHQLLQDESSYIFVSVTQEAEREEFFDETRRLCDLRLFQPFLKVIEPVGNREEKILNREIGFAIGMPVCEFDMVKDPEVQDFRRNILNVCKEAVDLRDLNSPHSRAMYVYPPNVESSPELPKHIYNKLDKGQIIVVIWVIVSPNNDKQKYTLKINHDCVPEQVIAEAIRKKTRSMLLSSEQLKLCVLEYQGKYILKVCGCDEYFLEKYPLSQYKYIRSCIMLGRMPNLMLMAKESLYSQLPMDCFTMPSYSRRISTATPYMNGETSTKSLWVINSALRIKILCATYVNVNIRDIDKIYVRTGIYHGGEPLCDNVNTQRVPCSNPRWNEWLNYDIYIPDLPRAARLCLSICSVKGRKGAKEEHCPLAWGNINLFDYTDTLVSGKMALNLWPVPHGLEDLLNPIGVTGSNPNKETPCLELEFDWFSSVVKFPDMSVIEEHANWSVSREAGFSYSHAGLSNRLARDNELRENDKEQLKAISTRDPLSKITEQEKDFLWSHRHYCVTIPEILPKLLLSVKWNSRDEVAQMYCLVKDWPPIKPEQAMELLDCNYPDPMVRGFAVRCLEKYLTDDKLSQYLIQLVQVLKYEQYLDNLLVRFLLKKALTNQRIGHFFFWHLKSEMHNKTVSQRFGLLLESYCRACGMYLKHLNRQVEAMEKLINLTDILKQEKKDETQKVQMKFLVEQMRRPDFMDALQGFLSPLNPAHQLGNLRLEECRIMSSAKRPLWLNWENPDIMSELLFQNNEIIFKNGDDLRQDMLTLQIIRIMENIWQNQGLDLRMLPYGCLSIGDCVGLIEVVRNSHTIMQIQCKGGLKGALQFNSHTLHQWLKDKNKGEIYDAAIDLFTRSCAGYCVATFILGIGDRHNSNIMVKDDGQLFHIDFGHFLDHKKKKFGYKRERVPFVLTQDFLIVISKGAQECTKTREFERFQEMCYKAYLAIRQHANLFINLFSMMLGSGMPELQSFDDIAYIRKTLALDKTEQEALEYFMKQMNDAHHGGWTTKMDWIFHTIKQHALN
# [42] = 10000 nM, 403 non-mutant kinases
compound,measurement,setting,value
"CC(C)c1ccc(CC(=O)N2CCN(c3ccc(C#N)nn3)CC2)cc1 [PZ-2891, 6-(4-(2-(4-isopropylphenyl)acetyl)piperazin-1-yl)pyridazine-3-carbonitrile]",remaining binding at 10 µM,[1],80%
same,remaining binding at 10 µM,[2],95%
same,remaining binding at 10 µM,[3],82%
same,remaining binding at 10 µM,[4],100%
same,remaining binding at 10 µM,[5],75%
same,remaining binding at 10 µM,[6],87%
same,remaining binding at 10 µM,[7],94%
same,remaining binding at 10 µM,[8],83%
same,remaining binding at 10 µM,[9],77%
same,remaining binding at 10 µM,[10],71%
same,remaining binding at 10 µM,[11],76%
same,remaining binding at 10 µM,[12],88%
same,remaining binding at 10 µM,[13],88%
same,remaining binding at 10 µM,[14],98%
same,remaining binding at 10 µM,[15],100%
same,solubility,[16],23 µM
same,remaining binding at 10 µM,[17],85%
same,remaining binding at 10 µM,[18],89%
same,remaining binding at 10 µM,[19],92%
same,remaining binding at 10 µM,[20],77%
same,remaining binding at 10 µM,[21],82%
same,remaining binding at 10 µM,[22],93%
same,remaining binding at 10 µM,[23],86%
same,remaining binding at 10 µM,[24],100%
same,remaining binding at 10 µM,[25],64%
same,remaining binding at 10 µM,[26],9.5%
same,remaining binding at 10 µM,[27],100%
same,remaining binding at 10 µM,[28],96%
same,remaining binding at 10 µM,[29],72%
same,remaining binding at 10 µM,[30],82%
same,remaining binding at 10 µM,[31],89%
same,remaining binding at 10 µM,[32],100%
same,remaining binding at 10 µM,[33],95%
same,remaining binding at 10 µM,[34],89%
same,remaining binding at 10 µM,[35],90%
same,inhibitory activity in screen of 468 kinases,[36]; 10 μM,did not exhibit off-target inhibition; also recorded: did not have significant inhibitory activity
same,Number of Hits S(1),[36]; [42],1
same,Number of Hits S(10),[36]; [42],2
same,Number of Hits S(35),[36]; [42],2
same,remaining binding at 10 µM,[37],75%
same,remaining binding at 10 µM,[38],95%
same,remaining binding at 10 µM,[39],72%
same,remaining binding at 10 µM,[40],66%
same,remaining binding at 10 µM,[41],64%
